Test results as given in US20250034185A1 (priority 2021, published 2025).
“Also recorded” adds a separate entry of the source.

Columns and labels:
[1] = Pharmacokinetic study 1: P5P and P5P analog 16, IV and PO, rats; type: in vivo; conditions: rat
Method: Pharmacokinetic study 1 was carried out (see Example 98: P5P analog 16i: Pharmacokinetic study 1) to assess if P5P analog 16i was able to be converted to P5P and increase plasma P5P, to assess if P5P analog 16i was orally available, and to compare the ability of PO P5P analog 16i and PO P5P to increase plasma P5P.
(§1) In order to isolate the effects of the administered P5P analog 16i on pyridoxine (PL) and P5P (PLP) levels, the basal levels of both PL and P5P were subtracted from the measured concentrations. Baseline subtraction was accomplished by subtracting pre-dose concentrations of either PL or P5P from the subsequent values in the time course.
Formulation—Both P5P (pyridoxal-5-phosphate) and P5P analog 16 were formulated in phosphate buffered saline (PBS) as homogenous solutions on the day of dosing.
(§2) Animals and group—13 CD ♂ rats with an approx. weigh of ˜250 g were used. Animals were split into 4 groups+1 extra (n=3 for each group). Animals were allowed a 5-day acclimatization period in animal facility. The animal room environment was controlled (temperature 22 f 0.2° C.; relative humidity 55 f 25%; 12 hours light/dark cycle, and 12 air changes per hour). A standard certified commercial rodent chow was provided to the animals ad libitum. Procedures involving the care and use of animals in this study were reviewed and approved by the Institutional Animal Care and Use Committee (IACUC) prior to conduct. One day prior to dosing on D-1, Rats were divided in 4 groups (Table 7). Rats in Group 3 and 4 were fasted overnight (12-14 hours) with access to water.
On day 0, animals were identified, weighted, and dosed by intravenous (IV) injection or oral gavage (PO) as described in Table 7. Food tray were returned to Group 3 and 4, 2 hrs post dosing.
(§3) Blood was collected at indicated time points below for all groups: Pre-dose, 5′, 15′, 30′, 1 h, 2 h, 4 h, 6 h, 8 h, 24 h.
(§4) About 150 μL of blood was collected at indicated time points below using K2EDTA tubes. Blood was kept on ice until centrifugation at 4° C. at 6000 RCF for 10 min. Plasma was collected and kept on dry ice until transferred at −80° C.

[2] = Single ascending dose study of P5P analog 16, oral, rats; type: in vivo; conditions: rat; for adverse reactions / clinical signs: single PO dose 10, 30, 100, 300 mg/kg, observed to 24 hrs
Method: Single ascending dose studies were carried out (Example 97: P5P analog 16i: single ascending dose study) to assess the maximum tolerability of a P5P analog (compound of formula 16i) in rats under 4 different doses under one single administration via Per Os (P.O.—oral) route, and to inform the linearity of pharmacokinetics (PK) with multiple dosing.
as §1, with “compound of formula” for “P5P analog”
Formulation—P5P analog 16 was formulated in 1% methylcellulose in water on the day of dosing.
as §2, with “and group—17” for “and group—13”, “extra (n=4” for “extra (n=3”, “(Table 6). Animals were identified and bled for pre-dose blood.” for “(Table 7).”, “in all groups” for “in Group 3 and 4”, “access of” for “access to”
On day 0, animals in groups 1-2-3 were weighed, and dosed by oral gavage as described in Table 6. Each remaining dosing solutions were stirred (or slightly vortexed), a 50 ul sample were collected and placed in separate tube and both vials immediately frozen on dry ice. Food tray were returned to animals two hours post dosing.
Cage-side observation were done upon dosing, at the end of day, and 24 hrs post dosing (record adverse effect if observed). Animal were weighed again at 24 hrs post dosing.
Blood was collected at indicated time points for all groups at: Pre-dose, 15′, 30′, 1 h, 2 h, 4 h, 6 h, 8 h, 24 h.
as §4

[3] = Pharmacokinetic study 4: SP isomer, RP isomer and D-amino acid prodrug, IV and PO, rats; type: in vivo; conditions: rat; for conversion to PLP in the plasma: IV (and PO)
From the text: The goal of the study was to compare the pharmacokinetic (PK) profiles of the S-isomer (16i) and the R-isomer (16iii) at the phosphorus center, and to assess the effect of using the D-amino acid (16i with SP and RP isomers) on PK profile.
as §1, with “agents” for “P5P analog 16i”, “PL” for “pyridoxine (PL)”, “PLP” for “P5P (PLP)”, “PLP” for “P5P were”, “PLP” for “P5P”
Formulation—Prodrugs 16i (SP isomer), 16i (RP isomer) and 16i′ (16i with D-amino acid racemate) were formulated in phosphate buffered saline (PBS) as a homogenous solution on the day of dosing.
Animals and group—19 CD ♂ rats with an approx. weigh of ˜250 g were used. Animals were split into 6 groups+1 extra (n=3 for each group). Animals were allowed a 5-day acclimatization period in animal facility. The animal room environment was controlled (temperature 22 f 0.2° C.; relative humidity 55 f 25%; 12 hours light/dark cycle, and 12 air changes per hour). A standard certified commercial rodent chow was provided to the animals ad libitum. Procedures involving the care and use of animals in this study were reviewed and approved by the Institutional Animal Care and Use Committee (IACUC) prior to conduct. One day prior to dosing on D-1, Rats were divided in 6 groups (Table 1). Animals were identified and bled for pre-dose blood. Rats in Group 4, 5 and 6 were fasted overnight (12-14 hours) with access of water.
On day 0, animals were weighted, and dosed by IV injection or by oral gavage as described in Table 10. Food tray were returned to Group 4, 5 and 6 two hours post dosing.
as §3, §4

plasma enzymes = conditions: Sprague Dawley, rat
[4] = Pharmacokinetic study 2: P5P analogs 16 and 16v, IV and PO, rats; type: in vivo; conditions: rat
Method: Pharmacokinetic study 2 was carried out (Example 99: P5P analog 16i: Pharmacokinetic study 2) to assess the effect of the P5P analog 16v compared to P5P analog 16i.
as §1, with “analogs” for “analog”, “16i and 16v” for “16i”, “P5P” for “P5P (PLP)”
Formulation—Both P5P analog 16 and P5P analog 16v were formulated in 40% hydroxypropyl-β-cyclodextrin in water as homogenous solutions on the day of dosing.
as §2, with “8).” for “7).”
On day 0, animals were identified, weighted, and dosed by intravenous (IV) injection or oral gavage (PO) as described in Table 8. Food tray were returned to Group 3 and 4, 2 hrs post dosing.
as §3, §4

[5] = Pharmacokinetic study 3: P5P analog 16vi and Compound II.I., IV and PO, rats; type: in vivo; conditions: rat
Method: […] (Example 100: P5P analog 16vi and compound II.I.: Pharmacokinetic study 3) to assess the effect of a P5P analog not encompassed by the compound of Formula I (Compound II.I.), amino acid modification (P5P analog 16vi) and compounds of formula 16iii, 16i and a racemic mixture of 16i.
as §1, with “administered Compound II.I. and” for “administered”, “16vi” for “16i”, “P5P” for “P5P (PLP)”
Formulation—Compound II.I. was formulated in 0.9% saline while P5P analog 16vi was formulated in 40% hydroxypropyl-β-cyclodextrin in water as a homogenous solution on the day of dosing.
as §2, with “9).” for “7).”
On day 0, animals were identified, weighted, and dosed by intravenous (IV) injection or oral gavage (PO) as described in Table 9. Food tray were returned to Group 3 and 4, 2 hrs post dosing.
as §3
About 150 μL of blood was collected at indicated time points below using K2EDTA tubes. Blood was kept on ice until centrifugation at 4° C. at 6000 RCF for 10 min. […]

SMILES: Cc1ncc(COP(=O)(N[C@@H](C)C(=O)OC(C)C)Oc2ccccc2)c(C=O)c1O (mixture of isomers) [Compound 16, (2S)-Isopropyl 2-(((4-formyl-5-hydroxy-6-methylpyridin-3-yl)methoxy)(phenoxy)phosphorylamino)propanoate]
- time after which the dosed compound is no longer left/detectable in the plasma ([1]; IV 1 mg/kg): 6 h
- ability to increase plasma PLP compared to PLP itself ([1]; given PO, FIGS. 7 a-d): improved ability
- prodrug (P5P analog) time of peak ([1]; oral 10 mg/kg): 0.5 hours
- adverse reactions / clinical signs [2]: no adverse reactions

SMILES: Cc1ncc(COP(=O)(N[C@H](C)C(=O)OC(C)C)Oc2ccccc2)c(C=O)c1O (mixture of isomers) [Compound 16iii, (2R)-Isopropyl 2-(((4-formyl-5-hydroxy-6-methylpyridin-3-yl)methoxy)(phenoxy)phosphorylamino)propanoate]
- PLP exposure, racemic D-amino acid prodrug compared with L-amino acid prodrug [3]: reduced PLP exposure
- conversion to PLP in the plasma [3]: did not convert well to PLP

SMILES: Cc1ncc(CO[P@@](=O)(N[C@@H](C)C(=O)OC(C)C)Oc2ccccc2)c(C=O)c1O [Compound 16i, (S)-Isopropyl 2-((S)-((4-formyl-5-hydroxy-6-methylpyridin-3-yl)methoxy)(phenoxy)phosphorylamino)propanoate]
- conversion to PLP in the plasma [3]: readily converted to PLP
- oral availability of the prodrug (crosses gastrointestinal wall, detectable in circulation) ([1]; dosed orally): orally bioavailable
- T1/2 of PL and PLP as dose was increased ([2]; PO 10-300 mg/kg): increase
- plasma PL and P5P concentrations with increasing dose ([2]; PO 10-300 mg/kg): clear dose-dependent increase
- dose linearity of plasma PL and PLP (Cmax and AUC) ([2]; PO): dose linearity up to 300 mg/kg
- signs of toxicity ([2]; highest dose group 300 mg/kg PO): did not show any signs of toxicity
- adverse reactions / clinical signs [2]: no clinical signs were observed
- relative P5P formed (plasma enzymes): 100.0%

SMILES: CCC(CC)COC(=O)[C@H](C)NP(=O)(OCc1cnc(C)c(O)c1C=O)Oc1ccccc1 (stereo partly drawn) [Compound 16v, (2S)-2-Ethylbutyl 2-(((4-formyl-5-hydroxy-6-methylpyridin-3-yl)methoxy)(phenoxy)phosphorylamino)propanoate]
- oral availability of the prodrug (crosses gastrointestinal wall, detectable in circulation) ([4]; dosed orally): orally bioavailable
- Tmax ([4]; male, CD, plasma, IV 1 mg/kg, read-out: prodrug (P5P analog) time of Cmax): 6 min
- plasma levels of P5P after oral dosing compared to P5P analog 16i ([4]; oral dosing): slightly greater amounts

SMILES: Cc1ncc(COP(=O)(N[C@@H](Cc2ccccc2)C(=O)OC(C)C)Oc2ccccc2)c(C=O)c1O (stereo partly drawn) [Compound 16vi, (2S)-Isopropyl 2-(((4-formyl-5-hydroxy-6-methylpyridin-3-yl)methoxy)(phenoxy)phosphorylamino)-3-phenylpropanoate]
- oral bioavailability (detection in plasma after oral dosing) ([5]; dosed orally): did not demonstrate significant oral bioavailability; also recorded: nor P5P were detected in the plasma at any significant levels
- Cmax ([5]; male, CD, plasma, po, orally 10 mg/kg, read-out: dosed compound Cmax in plasma): 1650 ng/mL
- dosed compound exposure ([5]; orally 10 mg/kg): 1592 ng/ml*hr

SMILES: Cc1ncc(COP(=O)(O)O)c(C=O)c1O [Compound P5P, pyridoxal-5-phosphate]
- overall exposure of P5P ([1]; IV 1 mg/kg): approximately 2200 ng/ml*hr
- time after which the dosed compound is no longer left/detectable in the plasma ([1]; IV 1 mg/kg): 4 h
- total exposure of pyridoxal (above baseline values) ([1]; IV 1 mg/kg): 770 ng/ml*hr
- plasma P5P Cmax ([1]; IV 1 mg/kg, PBS): 3373 ng/mL
- oral bioavailability of P5P ([1]; PO 10 mg/kg vs IV 1 mg/kg): 0%
- plasma pyridoxal Cmax ([1]; oral gavage 10 mg/kg): 3668 ng/mL
- P5P detected in the plasma over the 24-hour assessment period ([1]; oral gavage 10 mg/kg, 10 mg/kg): no detectable P5P; also recorded: not detected
